Consider 89 sequences from the OligoGym collection.

Where “and” joins values, the source holds several entries; their conditions need not be identical. Identical values can stand only once. After the bases stand the sugars from the 5' end (letter, count) and the backbone: PS all phosphorothioate, else s phosphorothioate and o phosphodiester by linkage. Methylation of C is not given here. e = 2'-O-(2-methoxyethyl) (MOE); k = constrained ethyl (cEt); d = 2'-deoxy (DNA)

The data set deals with IRF4. Particulars: ASO.

Turning to AACTCTCCTGTTTTCG (sugars k3 d10 k3, PS), the target mRNA inhibition (SK-MEL-28, 4 µM) was found to be 42%. The same measure, in the same setting: the same measure for GTTCTAGTCGCGCAAG (sugars k3 d10 k3, PS): 27%. With “GACACTTTTAGAGAGG (sugars kkdddddddddkekek, PS)”, the target mRNA inhibition (MM.1R, 1 µM) came to 17%. On to GATGTATACCAACGAC (sugars k3 d10 k3, PS), for which the target mRNA inhibition (SK-MEL-28, 4 µM) was found to be 68%.

Consider “ACTGTTACCGATGCTT (sugars kkdddddddddekeke, PS)”, for which the target mRNA inhibition (MM.1R, 1 µM) was 23% and 37%.

TATAACCGGTAGAGTG (sugars k3 d10 k3, PS): under “SK-MEL-28, 4 µM”, the target mRNA inhibition came to 21%. For CACAACTGCAGTTTGA (sugars k3 d10 k3, PS), for the setting “SK-MEL-28, 4 µM”, the target mRNA inhibition amounted to 14%.

For AGCTCAATAATCTCCC (sugars k3 d10 k3, PS), the target mRNA inhibition (MM.1R, 1 µM) was 6%. On the same count and under the same terms, the same measure for “AAGTGTCTAAAGTCCC (sugars k2 d9 e3 k2, PS)”: 21% and 46%. Same read-out and setting: as for ACTTGCATCCATGTCA (sugars k3 d10 k3, PS), the figure is 35%.

With GTGCAGGAGAGGCTGA (sugars k3 d10 k3, PS), where the note is “SK-MEL-28, 4 µM”, the target mRNA inhibition is 32%.

For TAGTAGACCACAGTGA (sugars k3 d10 k3, PS), the target mRNA inhibition (SK-MEL-28, 4 µM) came to 9%. GCTCGGAGCGACCCAA (sugars k3 d10 k3, PS): for the setting “SK-MEL-28, 4 µM”, the target mRNA inhibition was 8%. Same read-out and setting: the same measure for ATAAGAAGCACTGGCA (sugars k3 d10 k3, PS): 51%.

Consider CCTTAAGCTATTTGGT (sugars k3 d10 k3, PS), for which the target mRNA inhibition (MM.1R, 1 µM) is -786%. Take AAACGACAAGTGGCGC (sugars k3 d10 k3, PS): the target mRNA inhibition (SK-MEL-28, 4 µM) amounted to 21%. As for TCCGGGTGTGGCTGAT (sugars k3 d10 k3, PS), the target mRNA inhibition (MM.1R, 1 µM) came to 26%. Same read-out and setting: as for ACTTATTTGTGGCTCA (sugars k3 d10 k3, PS), the figure is 36%. For the sequence GTAAAGGTAAAGGCAC (sugars k3 d10 k3, PS), the target mRNA inhibition (SK-MEL-28, 4 µM) was found to be 42%. Regarding “TTTATGTTAGCCAATT (sugars kkdddddddddkdkdk, PS)”, for the setting “MM.1R, 1 µM”, the target mRNA inhibition was 11% and 34%. The same measure, in the same setting: as for GAATAGGACCCCTATC (sugars k3 d10 k3, PS), the figure is -3%. For CGGACGCACGGAGAGG (sugars k3 d10 k3, PS), the target mRNA inhibition (SK-MEL-28, 4 µM) was found to be 28%. Same read-out and setting: the same measure for TTGTCCTCTGGGTAGG (sugars k3 d10 k3, PS): 30%. Regarding “AAGCTTGATAAAGGCT (sugars kkkddddddddkekek, PS)”, for the setting “MM.1R, 1 µM”, the target mRNA inhibition is -4%. On to CCTCATTCACAACTAG (sugars k3 d10 k3, PS), for which the target mRNA inhibition (MM.1R, 1 µM) is 5%.

Regarding “TACTGCTTGAGGTTTT (sugars kdddddddddkekeke, PS)”, the target mRNA inhibition (MM.1R, 1 µM) turned out to be 14%.

On to CCGTGGTGAGCAAACG (sugars k3 d10 k3, PS), for which the target mRNA inhibition (SK-MEL-28, 4 µM) was 32%. As to CGCTACAGCTTCTGCA (sugars k3 d10 k3, PS), the target mRNA inhibition (SK-MEL-28, 4 µM) was 20%. GGGTACATGGCAGTGG (sugars k3 d10 k3, PS): the target mRNA inhibition is 19% (SK-MEL-28, 0.185 µM); 68% (SK-MEL-28, 4 µM); 76% (SK-MEL-28, 5 µM); 92% (SK-MEL-28, 15 µM).

Take ACGGACGGAGGCGGCA (sugars k3 d10 k3, PS): the target mRNA inhibition (SK-MEL-28, 4 µM) is 11%. The same measure, in the same setting: as for ATAGTTGTCTGGCTAG (sugars k3 d10 k3, PS), the figure is 52%.

Take CATTACTAGATTGTAG (sugars k3 d10 k3, PS): the target mRNA inhibition (SK-MEL-28, 4 µM) was 9%. The same measure, in the same setting: as for ATAAAGGACCCCGCCA (sugars k3 d10 k3, PS), the figure is 18%.

For the sequence TTCCATAGAGCCAGAG (sugars k3 d10 k3, PS), the target mRNA inhibition (SK-MEL-28, 4 µM) is 37%. As for CCATTTAATCTGTCTA (sugars k3 d10 k3, PS), the target mRNA inhibition (SK-MEL-28, 4 µM) was determined as 28%. Same read-out and setting: the same measure for TGTAACTGAGGACTCA (sugars k3 d10 k3, PS): -2%; for CTACACCTACACAGGC (sugars k3 d10 k3, PS): 16%. As to ACTTGCTAAGTCTTAT (sugars k3 d10 k3, PS), the target mRNA inhibition (MM.1R, 1 µM) was 13%. Turning to “AGTATGAGAAACGGCC (sugars kkdddddddddekeke, PS)”, under “MM.1R, 1 µM”, the target mRNA inhibition was found to be 11%.

As for CCAACGACAGCATAGC (sugars k3 d10 k3, PS), the target mRNA inhibition (SK-MEL-28, 4 µM) was 76%. The same measure, in the same setting: as for TAGCAGAGGTTCTACC (sugars k3 d10 k3, PS), the figure is 26%. Take GTTCGCTGAATTGTCA (sugars k3 d10 k3, PS): under “SK-MEL-28, 4 µM”, the target mRNA inhibition came out at 37%. “GTAGTATGAGAAACGG (sugars kkkdddddddddkeke, PS)”: the target mRNA inhibition (MM.1R, 1 µM) was determined as 15%. With CCCAAAGGGCATCCTC (sugars k3 d10 k3, PS), for the setting “SK-MEL-28, 4 µM”, the target mRNA inhibition turned out to be 41%. On the same count and under the same terms, the same measure for ACAAGCTGGGCCTTGC (sugars k3 d10 k3, PS): 27%. Regarding “ACTTTTAGAGAGGAGA (sugars kdddddddddkekeke, PS)”, the target mRNA inhibition (MM.1R, 1 µM) is 17%.

As to AGTTTAAGGGTTACGC (sugars k3 d10 k3, PS), the target mRNA inhibition is -2% and 15% (MM.1R, 0.0625 µM); 7% (MM.1R, 0.074 µM); 8% (MM.1R, 0.222 µM); 20% (MM.1R, 0.666 µM); 4% and 24% (MM.1R, 1 µM); 28% (MM.1R, 2 µM). Moreover, the target mRNA inhibition reads like this: (MM.1R, 4 µM) 22% and 40%; (SK-MEL-28, 4 µM) 63%. Regarding CTGCGAAGCGCGCGCG (sugars k3 d10 k3, PS), where the note is “MM.1R, 1 µM”, the target mRNA inhibition is -6%. On to CCTCTGAGCAGAACGA (sugars k3 d10 k3, PS), for which the target mRNA inhibition (SK-MEL-28, 4 µM) came to 76%.

GATAAGGCACTACTTC (sugars k3 d10 k3, PS): the target mRNA inhibition (SK-MEL-28, 4 µM) amounted to 47%. For TCAATGGGAATCACAG (sugars k3 d10 k3, PS), where the note is “SK-MEL-28, 4 µM”, the target mRNA inhibition turned out to be 40%. Regarding “TGATGTGATAGCTGAG (sugars k2 d9 e3 k2, PS)”, where the note is “MM.1R, 1 µM”, the target mRNA inhibition is 47%. With GGCTCAACCTGGAAGG (sugars k3 d10 k3, PS), under “SK-MEL-28, 4 µM”, the target mRNA inhibition was found to be 29%.

Turning to TTGTCTGGCTAGCAGA (sugars k3 d10 k3, PS), the target mRNA inhibition (SK-MEL-28, 4 µM) is 45%. Still for that read-out and setting: as for CAAATTCCCGGAGGAA (sugars k3 d10 k3, PS), the figure is 5%. Take “AGTTGTAAATGAGTCG (sugars kkdddddddddkdkdk, PS)”: the target mRNA inhibition (MM.1R, 1 µM) came to 39%. CTTCTTTATGCGAAGA (sugars k3 d10 k3, PS): under “SK-MEL-28, 4 µM”, the target mRNA inhibition was -5%. For the sequence GGCCTCCCGCTTGTGG (sugars k3 d10 k3, PS), the target mRNA inhibition (SK-MEL-28, 4 µM) is -18%. Consider TTCTAATGGTGCTCCT (sugars k3 d10 k3, PS), for which, for the setting “SK-MEL-28, 4 µM”, the target mRNA inhibition was 7%. CACCCACACAAGTCTT (sugars k4 d8 k4, PS): under “SK-MEL-28, 4 µM”, the target mRNA inhibition was 14%. Still for that read-out and setting: as for GTAACTGACACGCACA (sugars k3 d10 k3, PS), the figure is 51%.

On to CGCCCTGGACTCGGAG (sugars k3 d10 k3, PS), for which, for the setting “SK-MEL-28, 4 µM”, the target mRNA inhibition turned out to be 36%. As to GCCACCGACTCTTTTT (sugars k3 d10 k3, PS), the target mRNA inhibition (MM.1R, 1 µM) was -5%. The same measure, in the same setting: the same measure for “TTGATGTGATAGCTGA (sugars k2 d9 e3 k2, PS)”: 17%. For CCAGGTTAAACAGGAA (sugars k3 d10 k3, PS), for the setting “SK-MEL-28, 4 µM”, the target mRNA inhibition came to 6%.

For the sequence GAGATACTTGTACTGT (sugars k3 d10 k3, PS), the target mRNA inhibition reads like this: (MM.1R, 0.0625 µM) -2%; (MM.1R, 0.25 µM) 18%; (MM.1R, 1 µM) 49% and 57%; (MM.1R, 4 µM) 84%. With CCGCGCTCATGCCGAA (sugars k3 d10 k3, PS), the target mRNA inhibition (SK-MEL-28, 4 µM) is 45%. In the case of GTCCTTCAGATTTACA (sugars k3 d10 k3, PS), the target mRNA inhibition (MM.1R, 1 µM) was -17%. As to GTCACGCCCGCAAAAG (sugars k3 d10 k3, PS), the target mRNA inhibition (SK-MEL-28, 4 µM) turned out to be 39%. Same read-out and setting: as for AGCCACGAGGCACCGC (sugars k3 d10 k3, PS), the figure is 12%. As to GCAGCCAAGGATAACC (sugars k3 d10 k3, PS), the target mRNA inhibition (MM.1R, 1 µM) came out at 6%. With TGCTTGAGGTTTTCCT (sugars k3 d10 k3, PS), the target mRNA inhibition (SK-MEL-28, 4 µM) is 80% and 76%. With “TAGTATGAGAAACGGC (sugars k3 d9 k3 e1, PS)”, under “MM.1R, 1 µM”, the target mRNA inhibition was 48%. With TCCCAGAGTTGTTCCA (sugars k3 d10 k3, PS), under “SK-MEL-28, 4 µM”, the target mRNA inhibition worked out at 26%. Still for that read-out and setting: the same measure for ATTCATTTTATGGACC (sugars k3 d10 k3, PS): 42%. Consider GAAACCCTCATCACCG (sugars k3 d10 k3, PS), for which the target mRNA inhibition (MM.1R, 1 µM) was -38%. For GCATCGAGATCAGTCT (sugars k3 d10 k3, PS), the target mRNA inhibition (SK-MEL-28, 4 µM) worked out at 57%. On the same count and under the same terms, as for AGAGTGGTACACCTCT (sugars k3 d10 k3, PS), the figure is 22%; as for GATACAAAACGGACTG (sugars k3 d10 k3, PS), 44%. Same read-out and setting: the same measure for CACATAACTCAGGCAA (sugars k3 d10 k3, PS): 37%. In the case of “ACCTCAGTTTGTGAAG (sugars k2 d9 e3 k2, PS)”, the target mRNA inhibition (MM.1R, 1 µM) is 4%.

Regarding “GATTATATACTGGTTG (sugars k2 d9 e3 k2, PS)”, the target mRNA inhibition (MM.1R, 1 µM) was 42%. On the same count and under the same terms, as for “AGTGACTTGCATCCAT (sugars k2 d9 e3 k2, PS)”, the figure is 52%; as for “TGTGCTTGCCAAGCCT (sugars kkdddddddddkdkdk, PS)”, 23% and 21%; as for “ATGTGTATTACTCTTA (sugars kdddddddddkekeke, PS)”, 36% and 49%. In the case of GGAAATTCAAGCTTTC (sugars k3 d10 k3, PS), the target mRNA inhibition (SK-MEL-28, 4 µM) was determined as 64%. Still for that read-out and setting: as for CGCCACATCAGCAGAC (sugars k3 d10 k3, PS), the figure is 12%. Take “AAGCAGTGATGTCAGG (sugars kkdddddddddekeke, PS)”: the target mRNA inhibition (MM.1R, 1 µM) amounted to 65%.

Consider GGATAATATACCCCAA (sugars k3 d10 k3, PS), for which the target mRNA inhibition (SK-MEL-28, 4 µM) was determined as 64%.
